Reference: EP2526945A1, “New CRTH2 Antagonists” (Almirall, S.A., priority 2011, dated 2012)

biological target: T1, CRTh2 receptor (Homo sapiens, UniProt Q9Y5Y4); experiment: CRTh2 GTPγS antagonism binding assay; assay type: biochemical; details: membranes from CHO.K1 cells stably overexpressing the CRTh2 receptor; PGD2 at 50 nM (EC80); [35S]-GTPγS as radioligand; read-out: GTPγ Binding
T1 construct: expressed in transfected cells; host or cells: CHO.K1 cells (membranes)
T1 sequence (Q9Y5Y4 1-395): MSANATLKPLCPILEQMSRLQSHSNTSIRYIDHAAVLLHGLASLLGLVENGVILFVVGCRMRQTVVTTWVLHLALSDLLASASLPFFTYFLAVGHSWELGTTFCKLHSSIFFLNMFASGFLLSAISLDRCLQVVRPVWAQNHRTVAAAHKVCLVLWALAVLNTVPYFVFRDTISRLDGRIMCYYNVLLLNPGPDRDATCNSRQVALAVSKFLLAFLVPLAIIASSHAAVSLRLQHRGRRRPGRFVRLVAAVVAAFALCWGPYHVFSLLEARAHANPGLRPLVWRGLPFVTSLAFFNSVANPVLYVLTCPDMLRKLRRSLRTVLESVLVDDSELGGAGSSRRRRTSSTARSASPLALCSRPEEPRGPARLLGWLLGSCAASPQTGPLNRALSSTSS
Protocol: CRTh2 GTPγS antagonism binding assay
The assay is performed using membranes obtained from CHO.K1 cells stably overexpressing the CRTh2 receptor and [^35S]-GTPγS as radioligand. Assay is performed pre-incubating 4-8 µg of membranes per well with the compound to be tested for 1 h, followed by incubation with PGD2 at 50 nM (EC80), 0.1 nM [^35S]-GTPγS in incubation buffer (20 mM HEPES, 10 mM MgCl2, 100 mM NaCl, 10 µM GDP, 10 µg/ml Saponine and 0.2% BSA) for 2 h at room temperature. The reaction is terminated by filtering in GF/C plates pre-treated with 20 mM HEPES, 10 mM MgCl2, 100 mM NaCl and washing 6 times with wash buffer (20 mM NaH2PO4, 20 mM Na2HPO4). After washing, plates are dried and scintillation buffer Optiphase added. The radioactivity retained in the filter is counted using a Microbeta liquid scintillation counter.

Structure (SMILES) | IC50 [nM]
Cc1c(Cc2ccccc2S(=O)(=O)c2ccccc2)c2c(=O)n(C)ccc2n1CC(=O)O [Example 75, {2,5-Dimethyl-4-oxo-3-[2-(phenylsulfonyl)benzyl]-4,5-dihydro-1H-pyrrolo[3,2-c]pyridin-1-yl}acetic acid] | 4.9
COC(=O)c1ccc(Cc2c3c(n(CC(=O)O)c2C)CCNC3=O)c(S(=O)(=O)c2ccccc2)c1 [Example 28, {3-[4-(Methoxycarbonyl)-2-(phenylsulfonyl)benzyl]-2-methyl-4-oxo-4,5,6,7-tetrahydro-1H-pyrrolo[3,2-c]pyridin-1-yl}acetic acid] | 11
Cc1c(Cc2ccccc2S(=O)(=O)c2ccccc2)c2c(n1CC(=O)O)CCN(C)C2=O [Example 27, {2,5-Dimethyl-4-oxo-3-[2-(phenylsulfonyl)benzyl]-4,5,6,7-tetrahydro-1H-pyrrolo[3,2-c]pyridin-1-yl}acetic acid] | 5.4
Cc1c(Cc2ccccc2S(=O)(=O)c2ccccc2)c2c(n1CC(=O)O)CCNC2=O [Example 2, {2-Methyl-4-oxo-3-[2-(phenylsulfonyl)benzyl]-4,5,6,7-tetrahydro-1H-pyrrolo[3,2-c]pyridin-1-yl}acetic acid] | 4.6
Cc1c(Cc2ccc(C(=O)O)cc2S(=O)(=O)c2ccccc2)c2c(n1CC(=O)O)CCNC2=O [Example 29, 4-{[1-(Carboxymethyl)-2-methyl-4-oxo-4,5,6,7-tetrahydro-1H-pyrrolo[3,2-c]pyridin-3-yl]methyl}-3-(phenylsulfonyl)benzoic acid] | 18
Cc1c(Cc2ccccc2S(=O)(=O)c2ccccc2)c2c(n1CC(=O)O)CCN(C(C)C(F)(F)F)C2=O (stereo not drawn) [Example 71, [2-Methyl-4-oxo-3-[2-(phenylsulfonyl)benzyl]-5-(2,2,2-trifluoro-1-methylethyl)-4,5,6,7-tetrahydro-1H-pyrrolo[3,2-c]pyridin-1-yl]acetic acid] | 5.8
Cc1c(Cc2ccccc2S(=O)(=O)C2CCCCC2)c2c(n1CC(=O)O)CCNC2=O [Example 23, {3-[2-(Cyclohexylsulfonyl)benzyl]-2-methyl-4-oxo-4,5,6,7-tetrahydro-1H-pyrrolo[3,2-c]pyridin-1-yl}acetic acid] | 27
Cc1c(Cc2ccccc2S(=O)(=O)c2ccc(F)cc2)c2c(n1CC(=O)O)CC(C)(C)NC2=O [Example 60, (3-{2-[(4-Fluorophenyl)sulfonyl]benzyl}-2,6,6-trimethyl-4-oxo-4,5,6,7-tetrahydro-1 H-pyrrolo[3,2-c]pyridin-1-yl)acetic acid] | 5
COc1ccc(S(=O)(=O)c2ccccc2Cc2c3c(n(CC(=O)O)c2C)CCNC3=O)cc1 [Example 15, (3-{2-[(4-Methoxyphenyl)sulfonyl]benzyl}-2-methyl-4-oxo-4,5,6,7-tetrahydro-1H-pyrrolo[3,2-c]pyridin-1-yl)acetic acid] | 3.9
Cc1c(Cc2ccccc2S(=O)(=O)c2ccccc2)c2c(=O)[nH]ccc2n1CC(=O)O [Example 72, {2-Methyl-4-oxo-3-[2-(phenylsulfonyl)benzyl]-4,5-dihydro-1H-pyrrolo[3,2-c]pyridin-1-yl}acetic acid] | 8.6
Cc1c(Cc2ccccc2S(=O)(=O)c2ccccc2)c2c(n1CC(=O)O)CC(C)(C)NC2=O [Example 58, {2,6,6-Trimethyl-4-oxo-3-[2-(phenylsulfonyl)benzyl]-4,5,6,7-tetrahydro-1H-pyrrolo[3,2-c]pyridin-1-yl}acetic acid] | 4.5
Cc1c(Cc2ccccc2S(=O)(=O)c2ccc(Cl)cc2)c2c(n1CC(=O)O)CCNC2=O [Example 14, (3-{2-[(4-Chlorophenyl)sulfonyl]benzyl}-2-methyl-4-oxo-4,5,6,7-tetrahydro-1H-pyrrolo[3,2-c]pyridin-1-yl)acetic acid] | 8.4
Cc1c(Cc2ccc(S(=O)(=O)Cc3ccccc3)cc2)c2c(n1CC(=O)O)CCNC2=O [Example 39, {3-[4-(Benzylsulfonyl)benzyl]-2-methyl-4-oxo-4,5,6,7-tetrahydro-1H-pyrrolo[3,2-c]pyridin-1-yl}acetic acid] | 2.9
Cc1c(Cc2ccc(C(F)(F)F)cc2S(=O)(=O)c2ccccc2)c2c(n1CC(=O)O)CCNC2=O [Example 10, {2-Methyl-4-oxo-3-[2-(phenylsulfonyl)-4-(trifluoromethyl)benzyl]-4,5,6,7-tetrahydro-1H-pyrrolo[3,2-c]pyridin-1-yl}acetic acid] | 13
COc1ccc(S(=O)(=O)c2ccccc2)c(Cc2c3c(n(CC(=O)O)c2C)CCNC3=O)c1 [Example 6, {3-[5-Methoxy-2-(phenylsulfonyl)benzyl]-2-methyl-4-oxo-4,5,6,7-tetrahydro-1H-pyrrolo[3,2-c]pyridin-1-yl}acetic acid] | 3.6
Cc1c(Cc2ccccc2S(=O)(=O)c2cccc(F)c2)c2c(n1CC(=O)O)CCNC2=O [Example 12, (3-{2-[(3-Fluorophenyl)sulfonyl]benzyl}-2-methyl-4-oxo-4,5,6,7-tetrahydro-1H-pyrrolo[3,2-c]pyridin-1-yl)acetic acid] | 6.2
COc1cccc(S(=O)(=O)c2ccccc2Cc2c3c(n(CC(=O)O)c2C)CCNC3=O)c1 [Example 34, (3-{2-[(3-Methoxyphenyl)sulfonyl]benzyl}-2-methyl-4-oxo-4,5,6,7-tetrahydro-1H-pyrrolo[3,2-c]pyridin-1-yl)acetic acid] | 12
Cc1c(Cc2ccccc2S(=O)(=O)c2ccccc2F)c2c(n1CC(=O)O)CCNC2=O [Example 17, (3-{2-[(2-Fluorophenyl)sulfonyl]benzyl}-2-methyl-4-oxo-4,5,6,7-tetrahydro-1H-pyrrolo[3,2-c]pyridin-1-yl)acetic acid] | 3.6
Cc1c(Cc2cc(Br)ccc2S(=O)(=O)c2ccccc2)c2c(n1CC(=O)O)CCNC2=O [Example 42, {3-[5-Bromo-2-(phenylsulfonyl)benzyl]-2-methyl-4-oxo-4,5,6,7-tetrahydro-1H-pyrrolo[3,2-c]pyridin-1-yl}acetic acid] | 3.9
CNC(=O)c1ccc(Cc2c3c(n(CC(=O)O)c2C)CCNC3=O)c(S(=O)(=O)c2ccccc2)c1 [Example 31, {2-Methyl-3-[4-[(methylamino)carbonyl]-2-(phenylsulfonyl)benzyl]-4-oxo-4,5,6,7-tetrahydro-1H-pyrrolo[3,2-c]pyridin-1-yl}acetic acid] | 9.5
Cc1c(Cc2cccn2S(=O)(=O)c2ccccc2)c2c(n1CC(=O)O)CCNC2=O [Example 44, (2-Methyl-4-oxo-3-{[1-(phenylsulfonyl)-1H-pyrrol-2-yl]methyl}-4,5,6,7-tetrahydro-1 H-pyrrolo[3,2-c]pyridin-1-yl)acetic acid] | 5.9
Cc1c(Cc2ccccc2S(=O)(=O)c2ccc(F)cc2)c2c(n1CC(=O)O)CCNC2=O [Example 4, (3-{2-[(4-Fluorophenyl)sulfonyl]benzyl}-2-methyl-4-oxo-4,5,6,7-tetrahydro-1H-pyrrolo[3,2-c]pyridin-1-yl)acetic acid] | 3.2
Cc1c(Cc2ccccc2S(=O)(=O)N2CCOCC2)c2c(n1CC(=O)O)CCNC2=O [Example 24, {2-Methyl-3-[2-(morpholin-4-ylsulfonyl)benzyl]-4-oxo-4,5,6,7-tetrahydro-1H-pyrrolo[3,2-c]pyridin-1-yl}acetic acid] | 20
Cc1c(Cc2ccccc2S(=O)(=O)c2ccccc2)c2c(n1CC(=O)O)CCN(Cc1ccccc1)C2=O [Example 36, {5-Benzyl-2-methyl-4-oxo-3-[2-(phenylsulfonyl)benzyl]-4,5,6,7-tetrahydro-1H-pyrrolo[3,2-c]pyridin-1-yl}acetic acid] | 1.5
